The text below walks through data of ChEMBL document CHEMBL1138671, “Structure-based design, synthesis, and evaluation of conformationally constrained mimetics of the second mitochondria-derived activator of caspase that target the X-linked inhibitor of apoptosis protein/caspase-9 interaction site” (J Med Chem, 2004).

The target in the assay is E3 ubiquitin-protein ligase XIAP (Homo sapiens, UniProt P98170). Kind of assay: Binding affinity for the recombinant XIAP BIR3 protein in displacing a fluorescently labeled Smac peptide.
Sequence of E3 ubiquitin-protein ligase XIAP (P98170 whole entry): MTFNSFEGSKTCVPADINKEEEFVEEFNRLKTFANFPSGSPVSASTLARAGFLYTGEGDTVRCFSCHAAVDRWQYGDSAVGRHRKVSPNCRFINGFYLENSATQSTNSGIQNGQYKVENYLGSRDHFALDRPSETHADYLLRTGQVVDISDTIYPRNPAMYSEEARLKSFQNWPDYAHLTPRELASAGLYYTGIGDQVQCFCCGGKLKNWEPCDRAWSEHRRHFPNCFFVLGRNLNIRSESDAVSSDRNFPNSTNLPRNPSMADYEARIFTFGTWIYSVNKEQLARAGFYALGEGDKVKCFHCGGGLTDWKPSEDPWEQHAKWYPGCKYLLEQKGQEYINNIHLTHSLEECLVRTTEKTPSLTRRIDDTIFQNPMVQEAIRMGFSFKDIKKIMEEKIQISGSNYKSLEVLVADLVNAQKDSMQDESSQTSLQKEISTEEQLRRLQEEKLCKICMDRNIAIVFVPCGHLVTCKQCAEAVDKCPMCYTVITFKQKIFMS

Consider `CCC[C@H](N)C(=O)NC1CC[C@H]2CC[C@@H](C(=O)NCc3ccccc3)N2C1=O` (some centres not stated), for which the Ki was more than 100 µM.

With `C[C@H](N)C(=O)NC1CC[C@H]2CC[C@@H](C(=O)Nc3ccccc3)N2C1=O` (some centres not stated), the inhibition constant (Ki) was more than 100 µM.
